Experimental data as given in patent publication US20130225529A1, “PHOSPHO-ESTER DERIVATIVES AND USES THEREOF” (priority 2012, published 2013).

What was measured:
β-catenin signaling = test: β-catenin transcriptional activity (TOPflash) in HEK293T cells; format: cell-based; conditions: 5 μM each; control 1.23±0.11
skin papillomas = test: DMBA/TPA-induced skin papillomas in FVB mice; format: in vivo
Description: This initiation-promotion protocol leads to papillomas by wk 10, and in a fraction of the mice to SCC by wk 20. […] Criteria similar to those used for human papilloma classification were applied to assess disease progression: hyperplasia→papilloma (Pap 1-3)→microinvasive SCC (M1-3)→invasive SCC. On wk 20, the study was terminated.

U87 cells = test: 24-h growth inhibition of U87 glioblastoma cells; format: cell-based; conditions: Homo sapiens, U-87 MG; U87, 24 h
Method: U87 cells were treated with sulindac and ibuprofen as well as with the compounds. U87 is a human primary glioblastoma cell line, formally known as U-87 MG. This cell line has epithelial morphology, and is one of the most frequently used glioblastoma cell lines.

[1] = test system: A549 human non-small lung cancer cells; test: Orthotopic A549 lung tumor model in nude mice; format: in vivo; conditions: 200 mg/kg once a week for 8 weeks
SW480 colon cancer cells = test: SW480 colon cancer xenografts, prevention protocol, PTI; format: in vivo, mice; conditions: oral gavage; PTI 10 mg/kg/d, indomethacin 2 mg/kg/d; end of study
A549 cells [2] = test: Cell proliferation by BrdU staining; format: cell-based, human; conditions: 60 μM (indomethacin equimolar)
PGE2 production = PGE2 production by A549 cells; format: cell-based, human
SW480 cells = test: Cell cycle by PI staining; format: cell-based, human; conditions: 1×IC50 PTI; indomethacin at equimolar concentration; control 56.8
[3] = mouse, in vivo, ip
A431 skin cancer cells = test: Cellular uptake in A431 cells (HPLC); conditions: 100 μM for 1 h
[4] = format: in vivo, mice; conditions: 55° C. hot plate, 30 min after single i.p. dose; 100 mg/kg, PI-PEG 1,600 mg/kg; control 1.91 ± 0.46
[5] = test system: A549 human non-small cell lung cancer xenografts; test: A549 lung cancer xenografts, treatment protocol, PTI; format: in vivo, mice; conditions: 2 weeks, vs control
Method: Lung cancer treatment protocol: A549 cells (1.5×106) suspended in 100 μl of PBS (25% Hydrogel) were injected subcutaneously into both the left and right flanks of 5-6-week old female NOD SCID mice (Taconic Farms, Germantown, N.Y.). When the average tumor volume reached 100 mm3, the mice were divided into 3 groups: vehicle, PTI 10 mg/kg/d, and PTI 15 mg/kg/d (n=10/group); treatment lasted 2 weeks. At the end of the treatment, animals were euthanized and the xenografts were harvested.

[6] = test system: Salmonella typhimurium (TA98 and TA100); test: Salmonella plate incorporation mutagenicity assay; conditions: 1.5 to 5000 μg/plate, with or without rat liver S9
A549 cells [7] = test: Cellular uptake of PTI and indomethacin; format: in vitro ADME, human
Method: A549 cells were seeded in […] plates and allowed to grow as a monolayer. […] The incubation was terminated by washing the cell monolayer with complete medium and PBS. The cells were harvested by scraping, extracted by two-fold volume of acetonitrile and centrifuged at 13,000 rpm for 5 min. Drug levels were determined by HPLC.

[8] = Stability of PTI in complete media containing 10% serum; conditions: after 24 h
p65 subunit of NF-κB = test: NF-κB activation in A549 xenografts (p-p65 Ser276); format: in vivo, mice; conditions: vs controls
Method: (§1) Staining for PCNA and p-p65 (Ser276) was performed as described. Apoptosis was determined immunohistochemically by the terminal deoxynucleotidyl transferase-mediated deoxyuridine triphosphate-biotin nick end-labeling (TUNEL) assay.
To further explore the mechanism of action of PTI, we investigated the activation of NF-κB in the A549 lung tumor xenografts from the control and PTI-treated groups, by determining Ser276 phosphorylation of the p65 subunit of NF-κB. A shown in FIG. 28, compared to controls, PTI decreased the levels of p-p65 Ser276 in tumor xenografts by 90.0% (p=0.004).

liver esterases = test: Stability of PTI to purified porcine liver esterases; conditions: pig, half-life
porcine liver esterases = test: as above; conditions: 4 IU/ml porcine liver esterase, 20 min
[9] = Pharmacokinetics of PTI and indomethacin, single i.p. dose
A549 xenografts = test: Immunohistochemistry of A549 xenografts (PCNA, TUNEL); format: in vivo, mice
Method: as §1

HT29 = test: Cell viability (MTT), HT29; format: cell-based; conditions: Homo sapiens, HT-29; HT29, 72 h
COX-2 = COX-2 (Homo sapiens, UniProt P35354); test: COX fluorescent inhibitor screening assay, COX-2; format: biochemical
Sequence of COX-2 (P35354 18-604): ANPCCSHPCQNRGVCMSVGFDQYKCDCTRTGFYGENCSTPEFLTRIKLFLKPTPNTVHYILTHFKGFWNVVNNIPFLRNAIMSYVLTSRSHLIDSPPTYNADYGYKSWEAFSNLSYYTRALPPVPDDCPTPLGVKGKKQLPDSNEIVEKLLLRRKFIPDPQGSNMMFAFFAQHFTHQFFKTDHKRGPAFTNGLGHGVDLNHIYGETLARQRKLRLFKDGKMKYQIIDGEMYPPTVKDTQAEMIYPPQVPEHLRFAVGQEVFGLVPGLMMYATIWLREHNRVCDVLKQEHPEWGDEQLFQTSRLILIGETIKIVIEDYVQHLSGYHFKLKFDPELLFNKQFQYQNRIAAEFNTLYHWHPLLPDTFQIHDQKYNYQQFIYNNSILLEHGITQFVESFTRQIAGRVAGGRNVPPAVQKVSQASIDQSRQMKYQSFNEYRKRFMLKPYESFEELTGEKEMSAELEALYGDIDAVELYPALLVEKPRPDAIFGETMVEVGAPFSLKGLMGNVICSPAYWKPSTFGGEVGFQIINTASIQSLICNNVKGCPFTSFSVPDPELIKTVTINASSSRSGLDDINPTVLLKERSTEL

MDA-MB-231 = test: Cell viability (MTT), MDA-MB-231; format: cell-based; conditions: Homo sapiens, MDA-MB-231, 72 h
[10] = Gastrointestinal toxicity in rats
[11] = Cardiotoxicity, heart tissue histology; format: in vivo, mice; conditions: treated for 1.5 months, H&E
Description: Heart tissue sections from mice treated with PTI for 1.5 months were examined and scored histologically, following H&E staining and light microscopy for tissue damage and for the presence of inflammatory cells.

COX-1 = target: T1, COX-1 (Ovis aries, UniProt P05979); test: COX fluorescent inhibitor screening assay, COX-1; format: biochemical
T1 construct: purchased Cayman Chemical Co
T1 sequence (P05979 25-600): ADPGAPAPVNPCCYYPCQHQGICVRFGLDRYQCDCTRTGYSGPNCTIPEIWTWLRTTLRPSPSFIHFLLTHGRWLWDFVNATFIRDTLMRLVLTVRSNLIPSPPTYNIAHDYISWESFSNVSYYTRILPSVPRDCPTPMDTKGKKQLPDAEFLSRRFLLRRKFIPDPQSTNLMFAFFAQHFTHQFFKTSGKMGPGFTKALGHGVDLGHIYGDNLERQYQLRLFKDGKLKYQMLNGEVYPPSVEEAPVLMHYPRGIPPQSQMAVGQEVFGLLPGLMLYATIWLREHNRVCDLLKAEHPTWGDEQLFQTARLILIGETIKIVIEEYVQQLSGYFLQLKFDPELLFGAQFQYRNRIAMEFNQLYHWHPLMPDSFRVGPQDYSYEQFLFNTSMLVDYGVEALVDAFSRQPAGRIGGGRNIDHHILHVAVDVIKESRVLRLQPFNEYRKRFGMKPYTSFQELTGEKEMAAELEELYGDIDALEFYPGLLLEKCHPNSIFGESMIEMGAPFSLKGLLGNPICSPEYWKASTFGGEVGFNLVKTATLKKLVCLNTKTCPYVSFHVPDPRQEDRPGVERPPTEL

A549 cells [12] = test: Apoptosis by annexin V and PI staining; format: cell-based, human; conditions: 72 h, control 7.5%
Method: After the A549 cells were treated with the test drug in 6-well plates for 72 h, all cell populations (suspended and attached) were collected and stained with annexin V-FITC and propidium iodide (PI) (Invitrogen, Carlsbad, Calif.) for 15 min. Annexin V-FITC and PI fluorescence intensities were analyzed by flow cytometry with a FACScalibur. Annexin V(+)/PI(−) cells are early apoptotic cells; annexin V(+)/PI(+) cells are late apoptotic cells; and annexin V(−)/PI(+) cells are necrotic cells.

NCCC[C@](N)(C(=O)O)C(F)F [DFMO, α-difluoromethylornithine, reference compound]
luciferase/renilla activity (β-catenin signaling): 1.18±0.01 | papilloma multiplicity, oral administration (skin papillomas; oral): failed to reduce papilloma multiplicity | reduction of tumor burden (average tumor volume/mouse) (skin papillomas; topical): ~90% | thickness of the epidermis (skin papillomas; topical): partial effect | reduction of tumor number (papillomas/mouse) (skin papillomas; topical application): merely stabilized disease progression

CC(C)Cc1ccc(C(C)C(=O)O)cc1 (stereo not shown) [Ibuprofen, reference compound]
IC50 (U87 cells): ≥ 1000 µM | reduction based on lung tumor weight / lung weight [1]: 19% | reduction of lung cancer based on fluorescence [1]: 57%

COc1ccc2c(c1)c(CC(=O)O)c(C)n2C(=O)c1ccc(Cl)cc1 [Indomethacin, indomethacin, reference compound]
reduction of tumor growth (SW480 colon cancer cells): no significant effect | decrease of proportion of BrdU positive cells (A549 cells [2]): 15% | PGE2 levels induced by the calcium ionophore A23187 (PGE2 production): prevented the increase in PGE2 levels | proportion of cells in G0/G1 phase (SW480 cells): 57.7% | AUC0-24 h (for PTI: PTI plus its metabolite) [3]: 500 µM·h | peak plasma level [3]: 127 µM | time of peak plasma level [3]: 1 h

CCOP(=O)(OCC)OCCCCOC(=O)C(C)c1ccc(CC(C)C)cc1 (stereo not shown) [PI 132]
fold increase of cellular level over the other two compounds (A431 skin cancer cells): at least 300 fold | cellular content (cellular extract) (A431 skin cancer cells; limit of detection 2.5 pmol): 750 pmol | IC50 (U87 cells): 98 µM | latency values (mean±SD) [4]: 8.53 ± 0.81 s

CCOP(=O)(OCC)OCCc1ccc(OC(=O)Cc2c(C)n(C(=O)c3ccc(Cl)cc3)c3ccc(OC)cc23)cc1 [PTI, [1-(4-Chloro-benzoyl)-5-methoxy-2-methyl-1H-indol-3-yl]-acetic acid 4-[2-(diethoxy-phosphoryloxy)-ethyl]-phenyl ester]
reduction of tumor volume ([5]; 10 mg/kg/d): 68% | reduction of tumor volume ([5]; 15 mg/kg/d): 91% | genotoxicity (reverse mutations) [6]: no significant genotoxicity | cellular uptake, fold greater than indomethacin (A549 cells [7]; 6 h incubation, 50 to 200 μM): about 200 fold | cellular uptake, fold greater than indomethacin (A549 cells [7]; 16 h): about 230 fold | hydrolyzed [8]: 40% | reduction of tumor growth (SW480 colon cancer cells): 69% | decrease of p-p65 Ser276 levels in tumor xenografts (p65 subunit of NF-κB): 90.0% | half-life (liver esterases; 2 IU/ml esterase): 5 min | half-life (liver esterases; 4 IU/ml esterase): 2 min | intact PTI remaining (porcine liver esterases): approximately 20% | decrease of proportion of BrdU positive cells (A549 cells [2]): 96% | PGE2 levels induced by the calcium ionophore A23187 (PGE2 production): prevented the increase in PGE2 levels | Cmax ([9]; mouse, in vivo, ip, 100 mg/kg): 46 µM | plasma detectability of PTI ([9]; single i.p. 100 mg/kg PTI): undetectable at 4 h | time of maximum concentration of PTI ([9]; single i.p. 100 mg/kg PTI): 2 h | cell proliferation (PCNA) (A549 xenografts; PTI-treated tumors, controls 59.7±7.5%): 40.2±4.5% | apoptosis index (TUNEL) (A549 xenografts; control 3.3±0.3%): 5.8±1.2% | increase of apoptosis index (A549 xenografts; vs control): 75.8% | IC50 (HT29): 87 µM | selectivity for COX-2 over COX-1 (COX-2): 12.6 fold | IC50 (COX-2; purified COX-2): 71.7 µM | proportion of cells in G0/G1 phase (SW480 cells): 69.7% | IC50 (MDA-MB-231): 23 µM | reduction in gastrointestinal toxicity ([10]; PTI vs indomethacin): 60% | rats that developed ulcers ([10]; gavage 4 days, indomethacin 4.75 mg/kg/day, PTI 10 mg/kg/day): 40% | cardiotoxicity [11]: No differences in cardiotoxicity | IC50 (COX-1): 905 µM | annexin V+ cells (A549 cells [12]; 1.5×IC50): 12.3% | annexin V+ cells (A549 cells [12]; 2×IC50): 71.4%
